In experiment [1] the test system is Human RSV-A (“Long” strain). Put plainly: RSV-A assay: CPE in Hep-2 cells, ATPlite readout. The experiment is classed as cell-based. Conditions: human respiratory syncytial virus, 120 h, MOI 0.1, 5-day incubation.
For a further experiment, the system named is HMPV A2 TN/94-49. Put plainly: HMPV antiviral assay: LLC-MK2 cells, ATP-Lite readout. The experiment is classed as cell-based. Conditions: LLC-MK2, 168 h, MOI 0.005, 7 days incubation. The method in brief: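 LLC-MK2 cells (5,000/well) were infected in suspension with HMPV A2 TN/94-49 at MOI 0.005 in serum-free OptiMEM with 2 μg/mL final TPCK-trypsin, then incubated for 7 days at 37 °C. Compounds were tested in duplicate from 2 μM in 10-point 2.5-fold dilutions. ATP-Lite luminescence, normalised to virus-only and cells-only controls as % cell health, gave EC50 by four-parameter fit.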

The next experiment deals with HRSV. The settings on record: prophylactic use, high risk infants; cited from earlier work.

Results on two compounds are retold here after US12162857B2, “Antiviral compounds” (priority 2022, dated 2024).

`COc1cc(C(=O)NC[C@](O)(c2cc(N3CC[C@@H](O)C3)cc(-c3cc(Cl)c(F)cc3F)n2)C2CC2)cc2cn(C3CC3)nc12` [Example 200]: the EC50 was above 50 nM in experiment [1] and above 1000 nM in the experiment with HMPV A2 TN/94-49. As for Palivizumab, the “effective in reducing hospitalizations” value in the experiment with HRSV is on record as 60%.
